Laboratory results published in PubChem BioAssay AID504438 (Sanford-Burnham Center for Chemical Genomics, 2011).
Activity calls are given as the source filed them.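 The calls were made as follows: active = IC50 below 20 µM in the dose response test; inactive = the rest.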

target: Type-1 angiotensin II receptor (Homo sapiens) (UniProt P30556); experiment: AGTR1 beta-arrestin recruitment antagonism – cell-based, CHO-K1 AGTR1, luminescence, set 4, selectivity assay for APJ receptor antagonist project, SAR follow-up (AID 504438); conditions: CHO-K1 AGTR1 beta-arrestin complementation
Sequence (P30556 whole entry, looked up): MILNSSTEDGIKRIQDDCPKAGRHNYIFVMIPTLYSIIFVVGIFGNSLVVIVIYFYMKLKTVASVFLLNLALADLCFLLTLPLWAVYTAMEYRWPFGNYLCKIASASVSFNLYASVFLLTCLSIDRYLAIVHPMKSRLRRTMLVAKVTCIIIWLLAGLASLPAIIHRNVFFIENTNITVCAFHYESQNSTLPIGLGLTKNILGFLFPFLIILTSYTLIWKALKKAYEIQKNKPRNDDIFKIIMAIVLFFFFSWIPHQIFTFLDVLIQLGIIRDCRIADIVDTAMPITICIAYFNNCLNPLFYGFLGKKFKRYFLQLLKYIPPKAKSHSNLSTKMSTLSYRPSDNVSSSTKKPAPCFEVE

IC50, inactive:
O=C(Oc1coc(CSc2ccc(OC(F)(F)F)cc2)cc1=O)c1ccc(Cl)c([N+](=O)[O-])c1 > 79 µM
O=C(Oc1coc(CN2CCOCC2)cc1=O)c1ccc([N+](=O)[O-])cc1 > 79 µM
Cc1ccnc(SCc2cc(=O)c(NC(=O)c3ccc([N+](=O)[O-])cc3)co2)n1 > 79 µM
Cc1cc(C)nc(SCc2cc(=O)c(OC(=O)c3ccc(-c4nccs4)cc3)co2)n1 > 79 µM
O=C(Oc1coc(CSc2ccc(Cl)cc2)cc1=O)c1ccc(Cl)c([N+](=O)[O-])c1 > 79 µM
O=C(Oc1coc(CN2CCOCC2)cc1=O)c1ccccc1 > 79 µM
Cc1ccc(SCc2cc(=O)c(OC(=O)c3ccc(Cl)c([N+](=O)[O-])c3)co2)cc1 > 79 µM
COc1ccc(SCc2cc(=O)c(OC(=O)c3ccc(Cl)c([N+](=O)[O-])c3)co2)cc1 > 79 µM
